Results published in ChEMBL document CHEMBL1127924, “Synthesis and structure - anti-tumor-promoting activity relationship of monogalactosyl diacylglycerols” (1994).

Assays:
Human gammaherpesvirus 4 [1] = experiment: Inhibitory activity against TPA-induced Epstein-Barr virus early antigen (EBV-EA) activation at a concentration of 10 mol ratio/TPA; values are per cent of control
Human gammaherpesvirus 4 [2] = experiment: Inhibitory activity against TPA-induced Epstein-Barr virus early antigen (EBV-EA) activation at a concentration of 500 mol ratio/TPA; format: functional; design: scale not given: the % may be the effect or the level left
Human gammaherpesvirus 4 [3] = experiment: Inhibitory activity against TPA-induced Epstein-Barr virus early antigen (EBV-EA) activation at a concentration of 1000 mol ratio/TPA; format: functional
Human gammaherpesvirus 4 [4] = experiment: Inhibitory activity against TPA-induced Epstein-Barr virus early antigen (EBV-EA) activation at a concentration of 100 mol ratio/TPA; values are per cent of control

| SMILES | EBV-EA activation (% of control) (Human gammaherpesvirus 4 [1]) | Control (Human gammaherpesvirus 4 [2]) | EBV-EA activation (% of control) (Human gammaherpesvirus 4 [3]) | EBV-EA activation (% of control) (Human gammaherpesvirus 4 [4]) |
| --- | --- | --- | --- | --- |
| CCCCC/C=C/C/C=C/CCCCCCCC(=O)O[C@H](COC(=O)CCCCCCCCCCCCC)CO[C@@H]1O[C@H](CO)[C@H](O)[C@H](O)[C@H]1O | 100% | 39.6% | 17.1% | 88.2% |
| CCCCCCCCCCCCCC(=O)OC[C@H](CO[C@@H]1O[C@H](CO)[C@H](O)[C@H](O)[C@H]1O)OC(=O)CCCCCCCCCCCCC | 100% | 15.4% | 0% | 88.2% |
| CCCCCCCCC/C=C/C=C/C=C/C=C/C=C/C=C/C(=O)OC[C@H](CO[C@@H]1O[C@H](CO)[C@H](O)[C@H](O)[C@H]1O)OC(=O)CCCCCCCCCCCCC | 100% | 29.7% | 13.8% | 68.9% |
| CCCCCCCCC/C=C/C=C/C=C/C=C/C=C/C(=O)OC[C@H](CO[C@@H]1O[C@H](CO)[C@H](O)[C@H](O)[C@H]1O)OC(=O)/C=C/C=C/C=C/C=C/C=C/CCCCCCCCC | 100% | 54.3% | 0% | 89% |
| CCCCCCCC/C=C/CCCCCCCC(=O)OC[C@H](CO[C@@H]1O[C@H](CO)[C@H](O)[C@H](O)[C@H]1O)OC(=O)/C=C/C=C/C=C/C=C/C=C/CCCCCCCCC | 81.7% | 0% | 0% | 53.6% |
| CCCCC/C=C/C/C=C/CCCCCCCC(=O)O[C@H](COC(=O)CCCCCCC/C=C/CCCCCC)CO[C@@H]1O[C@H](CO)[C@H](O)[C@H](O)[C@H]1O | 100% | 74.6% | 53.3% | 100% |
| CCCCCCCC/C=C/CCCCCCCC(=O)OC[C@H](CO[C@@H]1O[C@H](CO)[C@H](O)[C@H](O)[C@H]1O)OC(=O)/C=C/C=C/C=C/C=C/C=C/C=C/CCCCCCCCC | 88.4% | 26.4% | 0% | 68.1% |
| CCCCCCCCC/C=C/C=C/C=C/C=C/C=C/C(=O)O[C@H](COC(=O)CCCCCCCCCCCCC)CO[C@@H]1O[C@H](CO)[C@H](O)[C@H](O)[C@H]1O | 90.7% | 30.6% | 15.8% | 72.8% |
| CC/C=C/C/C=C/C/C=C/CCCCCCCC(=O)O[C@H](COC(=O)CCCCCCC/C=C/C/C=C/CCCCC)CO[C@@H]1O[C@H](CO)[C@H](O)[C@H](O)[C@H]1O | 84.9% | 22.2% | 8.7% | 64.5% |
| CC/C=C/C/C=C/C/C=C/CCCCCCCC(=O)O[C@H](COC(=O)CCCCCCCCCCCCCCC)CO[C@@H]1O[C@H](CO)[C@H](O)[C@H](O)[C@H]1O | 100% | 57.6% | 19.4% | 92.6% |
| CCCCCCCCCCCCCC(=O)OC[C@@H](CO[C@@H]1O[C@H](CO)[C@H](O)[C@H](O)[C@H]1O)OC(C)=O | 77.4% | 36.8% | 17.4% | 52.9% |
| CCC=CCC=CCC=CCCCCCCCC(=O)O[C@@H](COC(=O)CCCCCCCCCCCCC)CO[C@@H]1O[C@H](CO)[C@H](O)[C@H](O)[C@H]1O | 100% | 20.2% | 0% | 73.9% |
| CCCCCCCCC/C=C/C=C/C=C/C=C/C=C/C(=O)O[C@@H](COC(=O)CCCCCCCCCCCCC)CO[C@@H]1O[C@H](CO)[C@H](O)[C@H](O)[C@H]1O | 100% | 52.8% | 26.1% | 84.1% |
| CCCCCCCC/C=C/CCCCCCCC(=O)O[C@H](COC(=O)C=C/C=C/C=C/C=C/C=C/C=C/CCCCCCCCC)CO[C@@H]1O[C@H](CO)[C@H](O)[C@H](O)[C@H]1O | 83.2% | 12.8% | 0% | 62.9% |
| CCCCCCCC/C=C/CCCCCCCC(=O)O[C@H](COC(=O)CCCCCCCCCCCCC)CO[C@@H]1O[C@H](CO)[C@H](O)[C@H](O)[C@H]1O | 100% | 16.9% | 0% | 80.4% |
| CCCCCCCCC/C=C/C=C/C=C/C=C/C=C/C=C/C(=O)OC[C@H](CO[C@@H]1O[C@H](CO)[C@H](O)[C@H](O)[C@H]1O)OC(=O)/C=C/C=C/C=C/C=C/C=C/C=C/CCCCCCCCC | 86.8% | 26.3% | 0% | 64.8% |
| OC[C@@H](O)CO[C@@H]1O[C@H](CO)[C@H](O)[C@H](O)[C@H]1O | 100% | 15.8% | 0% | 66.7% |
| CCCCCCCC/C=C/CCCCCCCC(=O)OCC(O)CO[C@@H]1O[C@H](CO)[C@H](O)[C@H](O)[C@H]1O (single isomer, unassigned) | 100% | 0% | 0% | 84.7% |
| CCCCCCCCCCCCCC(=O)OCC(O)CO[C@@H]1O[C@H](CO)[C@H](O)[C@H](O)[C@H]1O (single isomer, unassigned) | 90.7% | 22.5% | 0% | 65.3% |
| CCCCC/C=C/C/C=C/CCCCCCCC(=O)OCC(O)CO[C@@H]1O[C@H](CO)[C@H](O)[C@H](O)[C@H]1O (single isomer, unassigned) | 100% | 24.1% | 0% | 79.8% |
| CCCCCCCC/C=C/CCCCCCCC(=O)OCC(CO[C@@H]1O[C@H](CO)[C@H](O)[C@H](O)[C@H]1O)OC(=O)CCCCCCC/C=C/CCCCCCCC (single isomer, unassigned) | 61% | 11% | 0% | 21.3% |
| CCCCCCCCCC=CC=CC=CC=CC=CC=CC(=O)OC(COC(=O)CCCCCCCCCCCCC)CO[C@@H]1O[C@H](CO)[C@H](O)[C@H](O)[C@H]1O (single isomer, unassigned) | 100% | 64.7% | 0% | 88.3% |
| CCCCCCCCC=CCCCCCCCC(=O)OC(COC(=O)C=CC=CC=CC=CC=CCCCCCCCCC)CO[C@@H]1O[C@H](CO)[C@H](O)[C@H](O)[C@H]1O (single isomer, unassigned) | 93.2% | 18.5% | 0% | 69.6% |
